# Experiments:
# intragastric pH = assay: 48-hour intragastric pH-metry, Phase 1 exploratory dose-finding study in healthy subjects; type: in vivo, human; settings: for Hours with pH >4 (Mean (SD)) / Hours with pH >4 (Median (min, max)) / Percentage of time with pH >4 (Mean) / Percentage of time with pH >4 (Median (min, max)): healthy subjects
# Source text: The study was a single-centre, open-label, parallel-group, randomised exploratory dose-finding study designed to evaluate the PK, PD, safety and tolerability of repeated oral doses of linaprazan glurate (LG) at 3 dose levels, in healthy male and female subjects. About 36 subjects were randomised for an estimated total of 12 evaluable subjects per treatment arm.
# Subjects came to the clinic for 3 visits. The screening (Visit 1) took place from Day −28 to Day −1 and included an eligibility check and review of health status. At Visit 2, subjects were admitted to the clinic on Day −1 and remained at the clinic until Day 4 for repeated dose of LG administration and safety, PK and PD assessments. The subjects fasted for at least 8 hours before the anticipated dosing time on Day 1. Water, but no other drinks, was allowed as desired except for 1 hour before and 30 minutes after dosing. In the morning of Day 1, subjects were randomised to one of 3 treatment arms: • LG 50 mg BID for 3 days (5 doses, last dose in the morning of Day 3) • LG 100 mg (2×50 mg) BID for 3 days (5 doses, last dose in the morning of Day 3) • LG 150 mg (3×50 mg) BID for 3 days (5 doses, last dose in the morning of Day 3)
# Subjects were carefully monitored by clinical staff during and after dosing. […] The pH-metry assessment was started prior to Dose 3 (in the morning of Day 2) and continued for 48 hours, until 24 hours post last dose. Vital signs and ECG were checked at regular intervals and PK sampling was done at selected timepoints. A final end-of-study visit (Visit 3) took place on Day 7 (±2) or after early withdrawal. Each subject was expected to participate in the study for approximately 7 days from the day of randomisation (Day 1, Visit 2) to the End-of Study Visit. The Screening Visit was performed within 28 days prior to randomisation (Day −28 to Day −1).
# [1] = LEED study: endoscopic healing of erosive esophagitis / LA grade improvement after 4 weeks; type: in vivo, human
# Source text: The severity of esophagitis is typically indicated using the Los Angeles (LA) classification of reflux esophagitis, which is based on an endoscopic assessment of the patient. The LA grade scoring system divides reflux esophagitis into four categories (LA grade A to D) based on the extent of esophageal mucosal breaks. […] LA grade C esophagitis is defined as one or more mucosal breaks that are continuous between the tops of two mucosal folds, but which involves less than 75% of the esophageal circumference. The most severe form, LA grade D esophagitis, is defined as one or more mucosal breaks involving at least 75% of the esophageal circumference (Lundell et al., Gut 1999, vol. 45, p. 172-180).
# As used herein, the terms “improvement of the LA grade” and “LA grade improvement” refer to one or more steps from one LA grade to a lower LA grade (such as from grade D to grade C, B or A) or to being healed. In some embodiments, the improvement of the LA grade is 1 step. In some embodiments, the improvement of the LA grade is 2 steps. In some embodiments, the improvement of the LA grade is 3 steps. In some embodiments, the improvement of the LA grade is 4 steps.
# The study included patients with erosive esophagitis (eGERD). Patients were divided into two cohorts, one with patients having moderate to severe eGERD (LA grade C/D) and one with patients having milder eGERD (LA grade A/B) with a history of only partial response to PPI-treatment. The primary endpoint of the study was to support dose selection of linaprazan glurate for the phase III program in eGERD, through central assessment of healing of erosive esophagitis after four weeks of treatment. The sample size, i.e., the number of patients needed, for measuring dose related efficacy was based on the patient cohort with moderate to severe eGERD. After initial endoscopy and other screening procedures, 248 patients were randomized equally into one of five treatment groups, receiving either four weeks treatment with linaprazan glurate in four dose levels, or four weeks lansoprazole in the approved standard eGERD healing dose. Thereafter, an endoscopic evaluation of healing was performed, where healing was defined as no presence of esophageal erosions, i.e., no erosive damage to the esophageal mucosa. After the endoscopic evaluation, all patient groups received lansoprazole for four weeks in a maintenance phase. A retrospective central review of the endoscopy findings was performed, and 162 patients were available for evaluation of the primary endpoint. All enrolled 248 patients were included in the safety analysis.
# The study was a randomized, double-blind, active comparator-controlled study with a parallel group design including four arms with linaprazan glurate and one arm with lansoprazole. Pharmacokinetic (PK) blood sampling pre-dose, close before the first and the second dose administration was performed at Day 7, Day 14 and Day 28 visits days in all patients. 248 patients with erosive esophagitis due to GERD LA grade C or D and patients with erosive esophagitis due to GERD LA grade A or B with at least partial symptom response but still endoscopically unhealed after 8 weeks history of standard treatment healing course with PPI, were randomized.
# Randomization to one of the treatments with linaprazan glurate 25 mg, 50 mg, 75 mg, 100 mg twice daily (BID), or lansoprazole 30 mg once daily (QD) was based on a 1:1:1:1:1 scheme. One site could not enroll more than about 20% of the overall number of patients (48 patients per site).
# The duration of each patient's participation in the study, including screening, blind treatment period and open-label treatment period, was approximately 60 days. The patients were randomized for 4 weeks (28 days, −2/+5 days) of double-blind treatment and were provided with IMP for 35 days (including one additional blister pack dispensed at Visit 2/Day 0) to allow for treatment up to the visit window. […]
# [2] = system: gastric hydrogen potassium pump (H+/K+ ATPase); settings: healthy subjects; cited from earlier work
# [3] = Plasma pharmacokinetics / metabolism of linaprazan glurate; type: in vivo
# [4] = 50 mg LG, 1 last dose in the morning (Day 3, "QD")
# [5] = 50 mg LG, 2 doses (Day 2, BID), oral
# [6] = 100 mg LG, 1 last dose in the morning (Day 3, "QD")
# [7] = 100 mg LG, 2 doses (Day 2, BID), oral
# [8] = 150 mg LG, 1 last dose in the morning (Day 3, "QD")
# [9] = 150 mg LG, 2 doses (Day 2, BID), oral
# [10] = 100 or 150 mg, two daily doses (Day 2) vs once daily (Day 3)
# [11] = LA grade C/D, LG 100 mg BID, 4 weeks
compound,measurement,setting,value
"Cc1cccc(C)c1CNc1cc(C(=O)NCCOC(=O)CCCC(=O)O)cn2c(C)c(C)nc12 [linaprazan glurate, 5-{2-[({8-[(2,6-dimethylbenzyl)amino]-2,3-dimethylimidazo[1,2-a]pyridine-6-yl}carbonyl)-amino]ethoxy}-5-oxopentanoic acid]",Hours with pH >4 (Mean (SD)),intragastric pH; [4],17.04 (5.33) hours
same,"Hours with pH >4 (Median (min, max))",intragastric pH; [4],"15.80 (6.8, 23.8) hours"
same,Percentage of time with pH >4 (Mean),intragastric pH; [4],71.15%
same,"Percentage of time with pH >4 (Median (min, max))",intragastric pH; [4],"65.90 (28.6, 99.8) %"
same,Hours with pH >4 (Mean (SD)),intragastric pH; [5],15.47 (4.83) hours
same,"Hours with pH >4 (Median (min, max))",intragastric pH; [5],"15.65 (8.5, 23.8) hours"
same,Percentage of time with pH >4 (Mean),intragastric pH; [5],64.48%
same,"Percentage of time with pH >4 (Median (min, max))",intragastric pH; [5],"65.20 (35.4, 99.1) %"
same,Hours with pH >4 (Mean (SD)),intragastric pH; [6],18.38 (3.84) hours
same,"Hours with pH >4 (Median (min, max))",intragastric pH; [6],"19.30 (11.6, 23.5) hours"
same,Percentage of time with pH >4 (Mean),intragastric pH; [6],76.81%
same,"Percentage of time with pH >4 (Median (min, max))",intragastric pH; [6],"80.50 (48.9, 97.8) %"
same,Hours with pH >4 (Mean (SD)),intragastric pH; [7],18.93 (4.83) hours
same,"Hours with pH >4 (Median (min, max))",intragastric pH; [7],"21.30 (7.0, 22.8) hours"
same,Percentage of time with pH >4 (Mean),intragastric pH; [7],78.85%
same,"Percentage of time with pH >4 (Median (min, max))",intragastric pH; [7],"88.70 (29.1, 95.0) %"
same,Hours with pH >4 (Mean (SD)),intragastric pH; [8],20.38 (3.51) hours
same,"Hours with pH >4 (Median (min, max))",intragastric pH; [8],"21.05 (15.5, 24.0) hours"
same,Percentage of time with pH >4 (Mean),intragastric pH; [8],85.14%
same,"Percentage of time with pH >4 (Median (min, max))",intragastric pH; [8],"88.00 (64.9, 99.8) %"
same,Hours with pH >4 (Mean (SD)),intragastric pH; [9],22.00 (2.60) hours
same,"Hours with pH >4 (Median (min, max))",intragastric pH; [9],"23.05 (16.6, 24.0) hours"
same,Percentage of time with pH >4 (Mean),intragastric pH; [9],91.64%
same,"Percentage of time with pH >4 (Median (min, max))",intragastric pH; [9],"96.05 (69.3, 99.8) %"
same,"additional hours with pH>4 (median), BID vs QD",intragastric pH; [10],about two
same,"longer time with pH>4, BID vs QD",intragastric pH; [10],about 10%
same,healing rate vs lansoprazole,[1]; 4-week treatment vs 30 mg/day lansoprazole,significantly higher healing rates
same,dose response in the healing rates,"[1]; 4 weeks, LG 25-100 mg BID",clear dose response
same,healing rate of eGERD,"[1]; 25, 50, 75 or 100 mg twice daily for 4 weeks",high healing rates
same,highest four-week healing rate in a linaprazan glurate dosing group,"[1]; LA grade A/B, 4 weeks, BID",91%
same,"mean healing rate, all patients treated with linaprazan glurate","[1]; LA grade A/B/C/D, 4 weeks, all LG doses, FIG. 8",80%
same,highest mean LA grade improvement in a linaprazan glurate dosing group,"[1]; LA grade C/D, 4 weeks, BID, FIG. 5",3.1
same,LA grade improvement of all LG-treated patients vs lansoprazole,"[1]; LA grade C/D, 4 weeks, all LG doses",higher than lansoprazole
same,highest four-week healing rate in a linaprazan glurate dosing group,"[1]; LA grade C/D, 4 weeks, FIG. 6 (all LG dose group), FIG. 7 (LG 75 mg dose group)",89%
same,patients whose 4-week LA grade was A,[1]; [11],6 out of 7
same,response in the 100 mg dose group,[1]; [11],lower than expected
same,healing rate of all LG-treated patients vs lansoprazole,"[1]; LA grade C/D, post-hoc analysis, Fisher's exact test",significantly higher than lansoprazole
same,"mean harmonic p-value, healing rate LG vs lansoprazole","[1]; LA grade C/D, post-hoc, Fisher's exact test",0.0404
same,intragastric pH two hours after the first dose,[2],Neutral intragastric pH
same,plasma concentration of linaprazan glurate,[3]; following absorption,very low
same,metabolism into linaprazan,[3]; following absorption into the blood stream,quickly metabolized into linaprazan

# From patent US20260306464A1, “LINAPRAZAN GLURATE FOR TREATING GASTROESOPHAGEAL REFLUX DISEASE (GERD)” (Cinclus Pharma Holding AB (publ), priority 2023, published 2026)
